Measured values: US10047084B2, “Imidazolone derivatives, pharmaceutical compositions and uses thereof” (BEIJING FORELANDPHARMA CO. LTD., priority 2013, dated 2018)

How the values were obtained:
MV-4-11 = test: CTG cell survival assay, MV-4-11; type: cell-based; details: Homo sapiens, MV4-11, MV-4-11 cells
Outline: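 Cells grown in RPMI 1640 with 10% FBS were plated and cultured 24 h at 37 °C, 5% CO2, then treated with compound diluted from 10 mM DMSO stocks. Viable cells were quantified as ATP by CellTiter-Glo luminescence.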

[1] = Pharmacokinetics after oral administration, Balb/c mice; type: in vivo; details: mouse, plasma, 10 mg/kg
Method: (§1) 4. […] Blood was sampled before the administration and at 0.25 h, 0.5 h, 1 h, 2 h, 4 h, 6 h, 8 h, and 24 h after the administration.

[2] = Pharmacokinetics after oral administration, SD rat; type: in vivo; details: plasma, 10 mg/kg
Method: as §1

Q: For Cn1cc(-c2ccc(-c3ccc4ncc5c(c4c3)n(C3CCCN(S(C)(=O)=O)C3)c(=O)n5C)cn2)cn1 (stereo not shown) [Example 3, 3-methyl-8-(6-(1-methyl-1H-pyrazol-4-yl)pyridin-3-yl)-1-(1-(methanesulfonyl)piperidin-3-yl)-1H-imidazo[4,5-c]quinolin-2(3H)-one], which EC50 (MV-4-11) is on record?
A: < 200 nM

Q: With Cn1cc(-c2ccc(-c3ccc4ncc5c(c4c3)n([C@H]3CC[C@@H](O)CC3)c(=O)n5C)cn2)cn1 [Example 18, 1-((1s,4s)-4-hydroxycyclohexyl)-3-methyl-8-(6-(1-methyl-1H-pyrazol-4-yl)pyridin-3-yl)-1H-imidazo[4,5-c]quinolin-2(3H)-one] as the molecule, how does the EC50 (MV-4-11) read?
A: < 100 nM

Q: And the AUC [1]?
A: 10000 to 100000 ng·h/mL

Q: What about the Cmax [1] of the same molecule?
A: 5000 to 10000 ng/mL

Q: What about the half-life [1] of the same molecule?
A: 1 to 4 h

Q: What about the concentration at 6 h ([1]; 6 h) of the same molecule?
A: 1 to 10 µM

Q: What does the source list for Cn1cc(-c2ccc(-c3ccc4ncc5c(c4c3)n([C@H]3CCN(S(C)(=O)=O)C3)c(=O)n5C)cn2)cn1 [Example 28, (S)-3-methyl-8-(6-(1-methyl-1H-pyrazol-4-yl)pyridin-3-yl)-1-(1-(methanesulfonyl)pyrrolidin-3-yl)-1H-imidazo[4,5-c]quinolin-2(3H)-one]?
A: EC50 (MV-4-11): < 100 nM; AUC [2]: 10000 to 100000 ng·h/mL; Cmax [2]: 800 to 4000 ng/mL; half-life [2]: 4 to 10 h; concentration at 6 h [2]: 1 to 10 µM

Q: Which EC50 (MV-4-11) does the source give for Cn1cc(-c2ccc(-c3ccc4ncc5c(c4c3)n([C@@H]3CCCN(S(C)(=O)=O)C3)c(=O)n5C)cn2)cn1 [Example 31, (R)-3-methyl-8-(6-(1-methyl-1H-pyrazol-4-yl)pyridin-3-yl)-1-(1-(methanesulfonyl)piperidin-3-yl)-1H-imidazo[4,5-c]quinolin-2(3H)-one] here?
A: < 100 nM

Q: What about the AUC [2] of the same molecule?
A: 10000 to 100000 ng·h/mL

Q: What about the Cmax [2] of the same molecule?
A: 800 to 4000 ng/mL

Q: What about the half-life [2] of the same molecule?
A: 4 to 10 h

Q: What about the concentration at 6 h [2] of the same molecule?
A: 1 to 10 µM
